Data published in patent publication US20080102451A1, “Companion diagnostic assays for endothelin receptor antagonists” (Abbott Laboratories, priority 2006, published 2008).

Tests used:
PAI-1 = assay: ELISA for PAI-1 secreted by MC3T3 osteoblast cells; assay type: cell-based, mouse; conditions: MC3T3 cell line
Source text: (§1) Mouse MC3T3 pre-osteoblastic cells (subclone 4) were purchased from ATCC (Manassis, Va.) and propagated in αMEM media without ascorbic acid (Invitrogen, Carlsbad, Calif.) supplemented with 10% FBS (Invitrogen). Human Mesenchymal Stem Cells (MSCs) were purchased from Cambrex (Walkersville, Md.) and propagated according in MSCGM™ media (Cambrex). To initiate differentiation of the MSC into human osteoblasts, the growth media was replaced by osteogenic differentiation medium (OGM, Cambrex).
(§2) Mouse preosteoblastic MC3T3 cells as well as primary human osteoblasts were treated with ET, from Sigma (St. Louis, Mo.), for 2, 4, and 6 hours in the absence or presence of the ETa receptor antagonist ABT-627, from Abbott Laboratories (Abbott Park, Ill.). The drug was added 1 hour prior to the addition of ET.
(§3) Mouse MC3T3 osteoblast cells were propagated as set out above, and at times indicated were harvested and spun at 250×g for 10 minutes at room temperature. The clarified supernatants were aliquoted and frozen until analyzed. 200 microliters of each sample was tested in quadruplicate by commercially available ELISA assay kits for PAI-1 (Molecular Innovations, Southfield, Mich.), OPG (Biomedica, San Diego, Calif.) and IL-6 (Ray Biotech, Norcross, Ga.). The ELISA tests were performed according to the manufacturer's instructions. […]

OPG = assay: ELISA for OPG secreted by MC3T3 osteoblast cells; assay type: cell-based, mouse; conditions: MC3T3 cell line
Source text: as §1, §2, §3

osteoblastic metastases = conditions: mice injected with ET-1-secreting breast cancer cell lines; Yin et al. 2003; cited from earlier work
IL-6 = assay: ELISA for IL-6 secreted by MC3T3 osteoblast cells; assay type: cell-based, mouse; conditions: MC3T3 cell line
Source text: as §1, §2, §3

[1] = system: Mouse MC3T3 pre-osteoblastic cells; assay: Microarray analysis of gene expression in ET-treated mouse osteoblasts; assay type: cell-based; conditions: for # Genes Blocked by ABT-627 (of genes down-regulated by ET) / # Genes Blocked by ABT-627 (of genes induced by ET): drug added 1 hour prior to ET
Source text: as §1, §2
(§4) Total RNA was extracted from the treated cell lines and purified on RNeasy columns (Qiagen, Valencia, Calif.). Labeled cRNA was prepared according to the microarray manufacturer Affymetrix's protocol and hybridized to either mouse 430A 2.0 or human U133A 2.0 arrays (Affymetrix, Santa Clara, Calif.). Gene expression fold changes for each treatment were calculated by combining three biological replicates for each treatment using the Rosetta Resolver's Affymetrix error model software and building a ratio from the resulting values. All genes regulated ≧1.5-fold with a p-value of ≦0.01 were retained for further analysis. Conventional two-dimensional clustering was then performed by using the agglomerative hierarchical clustering algorithm. The Euclidean distance was used as the similarity metric.

[2] = system: metastatic hormone-refractory prostate cancer; conditions: patients with metastatic hormone-refractory prostate cancer; Nelson et al. 2003; cited from earlier work
[3] = system: primary human osteoblasts; assay: Microarray analysis of gene expression in ET-treated primary human osteoblasts; assay type: cell-based; conditions: ET-1 treatment
Source text: as §1, §2
as §4, with “All genes regulated ≧1.5-fold with a p-value of ≦0.01 were retained for further analysis. Conventional two-dimensional clustering was then performed by using the agglomerative hierarchical clustering algorithm. The Euclidean distance was used as the similarity metric.” left out

[4] = endothelin in the presence of ABT-627
[5] = mouse osteoblasts, time point 4 hr
[6] = mouse osteoblasts, time point 6 hr

CCCCN(CCCC)C(=O)CN1C[C@H](c2ccc3c(c2)OCO3)[C@@H](C(=O)O)[C@@H]1c1ccc(OC)cc1 [ABT-627, (2R,3R,4S)-(+)-2-(4-Methoxyphenyl)-4-(1,3-benzodioxol-5-yl)-1-(N,N-di(n-butyl)aminocarbonylmethyl)-pyrrolidine-3-carboxylic acid]
Endothelin-induced expression of PAI-1 (ELISA) (PAI-1; [4]): substantial suppression
Endothelin-induced expression of OPG (ELISA) (OPG; [4]): substantial suppression
Metastatic growth (osteoblastic metastases): suppressed the metastatic growth
Endothelin-induced expression of IL-6 (ELISA) (IL-6; [4]): substantial suppression
Induction by ET-1 of osteoblastic maturation genes (OPG, COX-2, Dmp1, Tgfbi, CTGF, Klf10) ([1]; osteoblastic cells, pre-treatment with ABT-627): blocked
Induction by ET of apoptosis suppression genes (Nur77, Flt1, NFATc1) ([1]; osteoblastic cells, with ABT-627): the induction was blocked
Genes Blocked by ABT-627 as percent of genes induced by ET ([1]; time point 2 hr): (96%)
# Genes Blocked by ABT-627 (of genes down-regulated by ET) ([1]; time point 2 hr): 403
# Genes Blocked by ABT-627 (of genes induced by ET) ([1]; time point 2 hr): 581
Genes Blocked by ABT-627 as percent of genes induced by ET ([1]; time point 4 hr): (83%)
# Genes Blocked by ABT-627 (of genes down-regulated by ET) ([1]; time point 4 hr): 262
# Genes Blocked by ABT-627 (of genes induced by ET) ([1]; time point 4 hr): 390
Genes Blocked by ABT-627 as percent of genes induced by ET ([1]; time point 6 hr): (97%)
# Genes Blocked by ABT-627 (of genes down-regulated by ET) ([1]; time point 6 hr): 93
# Genes Blocked by ABT-627 (of genes induced by ET) ([1]; time point 6 hr): 189
Effect of pre-treatment on ET gene induction events ([1]; two-dimensional hierarchical clustering, all three timepoints): abrogated almost all of these gene induction events
Gene expression changes caused by the antagonist alone ([1]; without ET): very few gene expression changes
Time to disease progression [2]: extended time to disease progression

CC[C@H](C)[C@H](NC(=O)[C@H](CC(=O)O)NC(=O)[C@H](CC(C)C)NC(=O)[C@H](Cc1c[nH]cn1)NC(=O)[C@@H]1CSSC[C@H](N)C(=O)N[C@@H](CO)C(=O)N[C@H]2CSSC[C@H](NC(=O)[C@H](CCC(=O)O)NC(=O)[C@H](CCCCN)NC(=O)[C@H](CC(=O)O)NC(=O)[C@H](CCSC)NC(=O)[C@H](CC(C)C)NC(=O)[C@H](CO)NC(=O)[C@H](CO)NC2=O)C(=O)N[C@@H](C(C)C)C(=O)N[C@@H](Cc2ccc(O)cc2)C(=O)N[C@@H](Cc2ccccc2)C(=O)N1)C(=O)N[C@H](C(=O)N[C@@H](Cc1c[nH]c2ccccc12)C(=O)O)[C@@H](C)CC [ET]
Expression of PAI-1 (ELISA) (PAI-1; treatment with endothelin): strongly induced
Expression of OPG (ELISA) (OPG; treatment with endothelin): strongly induced
Expression of genes coding for secreted proteins (PAI-1, uPA, TGFbeta2, IL-6, IL-8) [3]: strongly upregulated
Expression of IL-6 (ELISA) (IL-6; treatment with endothelin): strongly induced
Expression of genes coding for secreted proteins (PAI-1, uPA, TGFbeta2, IL-6, IL-8) ([1]; mouse osteoblasts, ET-1 treatment): strongly upregulated
# Genes Down-regulated by ET ([1]; mouse osteoblasts, time point 2 hr): 423
# Genes Induced by ET ([1]; mouse osteoblasts, time point 2 hr, regulated >=1.5-fold, p<=0.01): 608
# Genes Down-regulated by ET [1, 5]: 295
# Genes Induced by ET [1, 5]: 472
# Genes Down-regulated by ET [1, 6]: 95
# Genes Induced by ET [1, 6]: 194
Expression of apoptosis suppression genes (Nur77, Flt1, NFATc1) ([1]; osteoblastic cells, ET treatment): induced
